According to patent US10221170B2, “Difluoropyrrolidines as orexin receptor modulators” (Eolas Therapeutics, Inc., priority 2014, dated 2019):

How the values were obtained:
[1] = biological target: T1, OX2 (Homo sapiens, UniProt O43614); experiment: Orexin receptor cell-based functional assay (FLIPR [Ca2+]i), OX2; conditions: CHO-OX2 cells, FLIPR calcium, EC90 of OXA
T1 construct: expressed in transfected cells; host or cells: CHO (CHO-OX2)
T1 sequence (O43614 1-444): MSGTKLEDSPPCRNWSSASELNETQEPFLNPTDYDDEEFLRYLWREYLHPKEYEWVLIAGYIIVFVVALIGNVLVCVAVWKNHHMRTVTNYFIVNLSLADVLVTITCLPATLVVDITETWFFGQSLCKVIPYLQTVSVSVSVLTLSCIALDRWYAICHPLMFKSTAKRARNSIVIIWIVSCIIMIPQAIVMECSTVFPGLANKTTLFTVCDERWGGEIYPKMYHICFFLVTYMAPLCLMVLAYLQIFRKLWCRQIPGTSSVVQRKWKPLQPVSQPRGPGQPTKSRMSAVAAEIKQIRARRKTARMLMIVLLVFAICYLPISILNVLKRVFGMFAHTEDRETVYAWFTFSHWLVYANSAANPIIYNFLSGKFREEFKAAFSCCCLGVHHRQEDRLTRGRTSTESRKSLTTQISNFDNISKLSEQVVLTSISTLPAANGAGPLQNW
Protocol: (§1) Measurement of [Ca^2+]i using a FLIPR: CHO-OX1 or CHO-OX2 cells were seeded into black-walled clear-base 384-well plates (Corning, catalog #3712) at a density of 20,000 cells per well in F12-K medium supplemented with 10% FBS and then incubated in a 5% CO2, 37 C incubator overnight to reach 90% confluency. The cells were incubated with equal volume of calcium6 loading buffer (Molecular Devices, Inc.) containing 2.5 mM probenecid at 37° C. for 2 h, followed by test compounds (dose-range 0.1 nM-10 μM) for another 30 min. The plates were then placed into a FLIPR (Molecular Devices, Inc.) to monitor fluorescence (λ excitation 488 nm, λ emission 540 nm) before and after the addition of EC90 of [OXA].

[2] = biological target: T2, OX1 (Homo sapiens, UniProt O43613); experiment: Orexin receptor cell-based functional assay (FLIPR [Ca2+]i), OX1; conditions: CHO-OX1 cells, FLIPR calcium, EC90 of OXA
T2 construct: expressed in transfected cells; host or cells: CHO (CHO-OX1)
T2 sequence (O43613 1-425): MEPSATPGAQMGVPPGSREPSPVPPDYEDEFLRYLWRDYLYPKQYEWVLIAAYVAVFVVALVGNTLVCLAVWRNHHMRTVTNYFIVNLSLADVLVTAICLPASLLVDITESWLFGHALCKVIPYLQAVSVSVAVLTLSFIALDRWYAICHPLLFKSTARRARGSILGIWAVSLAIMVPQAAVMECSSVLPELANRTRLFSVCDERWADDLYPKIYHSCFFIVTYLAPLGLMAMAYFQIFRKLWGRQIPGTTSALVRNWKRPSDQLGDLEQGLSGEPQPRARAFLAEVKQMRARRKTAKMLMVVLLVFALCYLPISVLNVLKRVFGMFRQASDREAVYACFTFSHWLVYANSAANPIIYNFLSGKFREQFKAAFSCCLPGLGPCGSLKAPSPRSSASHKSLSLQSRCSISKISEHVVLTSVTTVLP
Protocol: as §1

Compound | IC50 [1] | IC50 [2]
Cc1nc(C(=O)N2CCC(F)(F)[C@H]2CNc2ncc(C(F)(F)F)cn2)c(-c2ccc(F)cc2)s1 [Example 1] | > 5000 nM | 1 nM
Cc1ccc(-n2nccn2)c(C(=O)N2CCC(F)(F)[C@H]2CNc2ncc(C(F)(F)F)cn2)c1 [Example 2] | > 5000 nM | 4 nM
O=C(c1cccc(F)c1-n1nccn1)N1CCC(F)(F)[C@H]1CNc1ncc(C(F)(F)F)cn1 [Example 3] | > 5000 nM | 4 nM
O=C(c1cc(F)ccc1-n1nccn1)N1CCC(F)(F)[C@H]1CNc1ncc(C(F)(F)F)cn1 [Example 5] | > 5000 nM | 4 nM
Cc1c(F)ccc(C(=O)N2CCC(F)(F)[C@H]2CNc2ncc(C(F)(F)F)cn2)c1-n1nccn1 [Example 7] | > 5000 nM | 15 nM
Cc1ccc(C(=O)N2CCC(F)(F)[C@H]2CNc2ncc(C(F)(F)F)cn2)c(-n2nccn2)c1F [Example 8] | > 5000 nM | 11 nM
O=C(c1cc(F)ccc1-c1ncccn1)N1CCC(F)(F)[C@H]1CNc1ncc(C(F)(F)F)cn1 [Example 10] | > 5000 nM | 2 nM
Cc1ccc(-n2nccn2)c(C(=O)N2CCC(F)(F)[C@H]2COc2ccc(C(F)(F)F)cn2)c1 [Example 25] | > 5000 nM | 230 nM
O=C(c1cc(F)c(F)cc1-n1nccn1)N1CCC(F)(F)[C@H]1CNc1ncc(C(F)(F)F)cn1 [Example 51] | 840 nM | 24 nM
O=C(c1c(-n2nccn2)ccc(F)c1F)N1CCC(F)(F)[C@H]1CNc1ncc(C(F)(F)F)cn1 [Example 52] | > 5000 nM | 6 nM
O=C(c1ccc(F)cc1-n1nccn1)N1CCC(F)(F)[C@H]1CNc1ncc(C(F)(F)F)cn1 [Example 53] | 830 nM | 15 nM
O=C(c1cc(Cl)ccc1-n1nccn1)N1CCC(F)(F)[C@H]1CNc1ncc(C(F)(F)F)cn1 [Example 54] | > 5000 nM | 3 nM
Cc1cccc(C(=O)N2CCC(F)(F)[C@H]2CNc2ncc(C(F)(F)F)cn2)c1-n1nccn1 [Example 55] | > 5000 nM | 7 nM
N#Cc1ccc(-n2nccn2)c(C(=O)N2CCC(F)(F)[C@H]2CNc2ncc(C(F)(F)F)cn2)c1 [Example 56] | > 5000 nM | 14 nM
O=C(c1c(F)cccc1-n1nccn1)N1CCC(F)(F)[C@H]1CNc1ncc(C(F)(F)F)cn1 [Example 57] | > 5000 nM | 3 nM
Cc1cccc(-n2nccn2)c1C(=O)N1CCC(F)(F)[C@H]1CNc1ncc(C(F)(F)F)cn1 [Example 58] | > 5000 nM | 14 nM
O=C(c1ccc(F)c(F)c1-n1nccn1)N1CCC(F)(F)[C@H]1CNc1ncc(C(F)(F)F)cn1 [Example 59] | > 5000 nM | 757 nM
Cc1cc(C)c(-n2nccn2)c(C(=O)N2CCC(F)(F)[C@H]2CNc2ncc(C(F)(F)F)cn2)c1 [Example 60] | > 5000 nM | 16 nM
Cc1cccc(C(=O)N2CCC(F)(F)[C@H]2CNc2ncc(Cl)cn2)c1-n1nccn1 [Example 63] | > 5000 nM | 3 nM
O=C(c1cc(F)ccc1-n1nccn1)N1CCC(F)(F)[C@H]1CNc1ncc(Cl)cn1 [Example 64] | > 5000 nM | 22 nM
Cc1ccc(-n2nccn2)c(C(=O)N2CCC(F)(F)[C@H]2CNc2ncc(Cl)cn2)c1 [Example 65] | > 5000 nM | 6 nM
N#Cc1ccc(-n2nccn2)c(C(=O)N2CCC(F)(F)[C@H]2CNc2ncc(Cl)cn2)c1 [Example 66] | > 5000 nM | 6 nM
O=C(c1ccc(F)c(F)c1-n1nccn1)N1CCC(F)(F)[C@H]1CNc1ncc(Cl)cn1 [Example 67] | > 5000 nM | 1000 nM
Cc1ccc(C(=O)N2CCC(F)(F)[C@H]2CNc2ncc(Cl)cn2)c(-n2nccn2)c1F [Example 68] | > 5000 nM | 105 nM
Cc1c(F)ccc(C(=O)N2CCC(F)(F)[C@H]2CNc2ncc(Cl)cn2)c1-n1nccn1 [Example 69] | > 5000 nM | 21 nM
O=C(c1ncccc1-n1nccn1)N1CCC(F)(F)[C@H]1CNc1ncc(Cl)cn1 [Example 70] | > 5000 nM | 20 nM
O=C(c1cc(F)ccc1-n1nccn1)N1CCC(F)(F)[C@H]1COc1ccc(C(F)(F)F)cn1 [Example 74] | > 5000 nM | 660 nM
O=C(c1cc(F)ccc1-n1nccn1)N1CCC(F)(F)[C@H]1CNc1cnc(C(F)(F)F)cn1 [Example 77] | 720 nM | 3 nM
